Assay [1] deals with cercariae of Schistosoma mansoni (Puerto Rican strain). It counts as cell-based. To be noted: 50 micromolar. Here is the method:
A modification of the assay developed by Clegg and Smithers (Clegg & Smithers, 1972. Int. J. Parasitol. 2, 79-98.) was used. Two Plexiglass chambers were manufactured which could be screwed together to hold a 25×25 mm section of skin at the interface of the two chambers. Human skin was obtained from autopsy (6-12 hours following death) or from amputation specimens received at the Department of Surgical Pathology, UCSF. The chamber below the skin was filled with tissue culture medium (DME H16) prewarmed to 37° C. After the skin was clamped, the upper chamber was filled with water containing 9000 cercariae of Schistosoma mansoni (Puerto Rican strain). Cercariae will follow a thermal gradient, and they are stimulated by the lipid on the surface of skin to invade (Stirewalt, 1974. Adv. Parasitol. 12, 115-180). After one hour exposure to cercariae the skin was removed, fixed in 10% phosphate buffered formalin for 24 h, and sectioned at 2 mm intervals. Following dehydration and routine paraffin embedding, 5μ sections were cut by microtome and stained with hemotoxylin and eosin. The number of cercariae which had invaded epidermis or dermis was counted in each section. Percent inhibition of invasion was calculated as [formula] All assays were done in triplicate and standard deviation of the mean calculated. […]

For assay [2], the target named is T1, cercarial protease (Schistosoma mansoni, UniProt P12546).
T1 construct: Serine protease was isolated from the acetabular glands of cercariae as described previously in McKerrow et al., 1985; from tissue; host or cells: acetabular glands of cercariae
T1 sequence (P12546 28-264): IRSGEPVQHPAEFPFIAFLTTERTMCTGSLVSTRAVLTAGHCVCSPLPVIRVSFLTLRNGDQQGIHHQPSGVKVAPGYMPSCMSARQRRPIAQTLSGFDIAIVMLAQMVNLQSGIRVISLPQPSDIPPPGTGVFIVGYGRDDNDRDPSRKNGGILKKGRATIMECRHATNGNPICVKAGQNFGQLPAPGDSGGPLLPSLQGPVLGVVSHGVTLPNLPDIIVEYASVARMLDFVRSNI
It counts as biochemical. To be noted: for substrate hydrolysis activity (in words): very low activity = absorbance change less than 0.001 O.D. in 40 min with 1.5 mM substrate; for Km: substrate hydrolysis, 100 mM glycine/NaOH, 2 mM CaCl2, pH 9.0, Lineweaver-Burk. The method, then: Serine protease was isolated from the acetabular glands of cercariae as described previously in McKerrow et al., 1985. J. Biol. Chem. 260, 3703-3707. All tetrapeptide thioester (Sbzl) substrates with the exception of MeO-Suc-Ala-Ala-Pro-Lys-Sbzl (a gift from Dr. James C. Powers, School of Chemistry, Georgia Institute of Technology, Atlanta, Ga.) were purchased from Enzyme System Products (Dublin, Calif.). Stock solutions (25 mM) of all substrates were prepared in dimethyl sulfoxide (DMSO). Rates of hydrolysis of substrates were measured by adding 1-10 μl of substrate and 25 μl of 1 mM 4,4'-dithiodipyridine in DMSO to buffer (100 mM glycine/NaOH, 2 mM CaCl2, pH 9.0) to give a total volume of 1.0 ml. A 10 μl enzyme sample was added to start the reaction. The increase in the absorbance at 325 nm was followed on a Gilford spectrophotometer. An ε value of 19,800 was used for the thiopyridine production.
Assays of paranitroanilide (pNA) and 7-amino-4-methyl coumarin (AMC) derivatized peptides were carried out as described in McKerrow et al., 1985. J. Biol. Chem. 260, 3703-3707. MeO-Suc-Ala-Ala-Pro-Phe-pNA was from Vega Biochemicals, Tucson, Az. MeO-Suc-Ala-Ala-Pro-Leu-pNA was a gift of Dr. David Agard, Department of Biochemistry, UCSF. All other pNA substrates were a gift of Dr. Corey Largman, Veterans Administration Hospital, Martinez, Calif. All AMC substrates were from Enzyme Systems Products, Dublin, Calif.
For each peptide substrate, the substrate concentration range was varied over ten-fold. The kinetic constants were determined from the initial rates of product formation using a least squares analysis according to method of Lineweaver-Burk (Lineweaver, H. & Burk, D. 1934. J. Am. Chem. Soc. 56, 658).

Another assay deals with Cercarial Proteinase (Schistosoma mansoni, UniProt P12546). The assay is described as follows: biochemical. Here is the method: The chloromethyl ketone-derivatized peptide inhibitors were designed by us based on our computer model, and synthesized for us by Enzyme System Products (Dublin, Calif.). Stock solutions of inhibitors (25 mM) were prepared in dimethyl sulfoxide (DMSO). The rate of irreversible inactivation of the protease was followed by withdrawing a 25 μl sample at 4 time intervals after mixing 125 μl of enzyme with 5 μl of inhibitor. […] B. 1962. J. Biol. Chem. 237, 3245) using MeO-Suc-Ala-Ala-Pro-Phe-Sbzl (Sbzl, benzyl thioester) as substrate. Inactivation constants for the boronic acid-derivatized peptides (MeO-Suc-Ala-Ala-Pro (D or L) boro-Phe-OH, a gift from Dr. Charles Kettner, E. I. Dupont de Nemours, Wilmington, Del.) were calculated using MeO-Suc-Ala-Ala-Pro-Phe-Sbzl as the substrate at 125 and 250 μM. Five different concentrations of each inhibitor were used per substrate concentration. The data were plotted according to Dixon and kinactivation values were extrapolated from the graph (Dixon, 1953. Biochem. J. 55, 170-171).
Chain of Cercarial Proteinase (P12546 28-264): as above
Therefore a boronic acid derivatized peptide analogous to the chloromethyl ketone derivatized Ala-Ala-Pro-Phe sequence was also tested. […] Stereoisomers of the same peptide were also evaluated.

Assay [3] concerns the target T1, cercarial protease. The assay is described as follows: biochemical. The method, then:
The chloromethyl ketone-derivatized peptide inhibitors were designed by us based on our computer model, and synthesized for us by Enzyme System Products (Dublin, Calif.). Stock solutions of inhibitors (25 mM) were prepared in dimethyl sulfoxide (DMSO). The rate of irreversible inactivation of the protease was followed by withdrawing a 25 μl sample at 4 time intervals after mixing 125 μl of enzyme with 5 μl of inhibitor. Kitz and Wilson's methods of analysis were used for calculation of Ki, k3, and k3 /Ki (Kitz R. & Wilson, I. B. 1962. J. Biol. Chem. 237, 3245) using MeO-Suc-Ala-Ala-Pro-Phe-Sbzl (Sbzl, benzyl thioester) as substrate. Inactivation constants for the boronic acid-derivatized peptides (MeO-Suc-Ala-Ala-Pro (D or L) boro-Phe-OH, a gift from Dr. Charles Kettner, E. I. Dupont de Nemours, Wilmington, Del.) were calculated using MeO-Suc-Ala-Ala-Pro-Phe-Sbzl as the substrate at 125 and 250 μM. Five different concentrations of each inhibitor were used per substrate concentration. The data were plotted according to Dixon and kinactivation values were extrapolated from the graph (Dixon, 1953. Biochem. J. 55, 170-171).

Where a SMILES comes first, the peptide text is derived from it. [ ]: non-standard residue; d: D form. The star is where a group is joined. pNA = O=[N+]([O-])c1ccc(N*)cc1; AMC = Cc1cc(=O)oc2cc(N*)ccc12; MeOSuc = COC(=O)CCC(=O)*; Nle = CCCC[C@H](N)C(=O)O; SBn = c1ccc(CS*)cc1; CH2Cl = ClC* A value given as a limit tells only on which side of the number the result lay.

With `COC(=O)CCC(=O)N[C@@H](C)C(=O)N[C@@H](C)C(=O)N1CCC[C@H]1C(=O)N[C@H](Cc1ccccc1)B(O)O` [MeO-Suc-Ala-Ala-Pro-(D)boro-Phe-OH], the “cercariae inhibited from invading skin” value in assay [1] is recorded as “less than 20%”.
As for `COC(=O)CCC(=O)N[C@@H](C)C(=O)N[C@@H](C)C(=O)N1CCC[C@H]1C(=O)N[C@@H](C)C(=O)Nc1ccc2c(C)cc(=O)oc2c1` [MeO-Suc-Ala-Ala-Pro-Ala-AMC] (MeOSuc-AAPA-{AMC}), the “substrate hydrolysis activity (in words)” value at cercarial protease [2] is “no activity”.
What is called IC50 is the midpoint of a concentration-inhibition curve. High values mean weaker potency, low ones greater potency. As for `COC(=O)CCC(=O)N[C@@H](C)C(=O)N[C@@H](C)C(=O)N1CCC[C@H]1C(=O)N[C@@H](C)C(=O)CCl` [MeO-Suc-Ala-Ala-Pro-Ala-CMK] (MeOSuc-AAPA-CH2Cl), on Cercarial Proteinase, the IC50 was more than 100 µM.
Consider `COC(=O)CCC(=O)N[C@@H](C)C(=O)N[C@@H](C)C(=O)N1CCC[C@H]1C(=O)N[C@@H](C)C(=O)SCc1ccccc1` [MeO-Suc-Ala-Ala-Pro-Ala-Sbzl] (MeOSuc-AAPA-SBn), for which the “substrate hydrolysis activity (in words)” value at cercarial protease [2] is reported as “no activity”.
A word on the Ki: it is a dissociation constant, usually derived from enzyme kinetics or from competition with a known ligand. Read a low Ki as a stronger hold on the target. Take `COC(=O)CCC(=O)N[C@@H](C)C(=O)N[C@@H](C)C(=O)N1CCC[C@H]1C(=O)N[C@@H](CC(C)C)C(=O)CCl` [MeO-Suc-Ala-Ala-Pro-Leu-CMK] (MeOSuc-AAPL-CH2Cl): the affinity on cercarial protease [3] corresponds to a Ki of 12 µM. The compound further had an IC50 against Cercarial Proteinase of 0.036 µM.
A word on the Km: it is the concentration of substrate that gives half-maximal velocity. As to `COC(=O)CCC(=O)N[C@@H](C)C(=O)N[C@@H](C)C(=O)N1CCC[C@H]1C(=O)N[C@@H](CC(C)C)C(=O)SCc1ccccc1` [MeO-Suc-Ala-Ala-Pro-Leu-Sbzl] (MeOSuc-AAPL-SBn), the Km at cercarial protease [2] came to 464 µM.
The same measure, in the same setting: in the case of `COC(=O)CCC(=O)N[C@@H](C)C(=O)N[C@@H](C)C(=O)N1CCC[C@H]1C(=O)N[C@@H](CC(C)C)C(=O)Nc1ccc([N+](=O)[O-])cc1` [MeO-Suc-Ala-Ala-Pro-Leu-pNA] (MeOSuc-AAPL-pNA) it was 118 µM.
Consider `COC(=O)CCC(=O)N[C@@H](C)C(=O)N[C@@H](C)C(=O)N1CCC[C@H]1C(=O)N[C@@H](CCCCN)C(=O)SCc1ccccc1` [MeO-Suc-Ala-Ala-Pro-Lys-Sbzl] (MeOSuc-AAPK-SBn), for which the “substrate hydrolysis activity (in words)” value at cercarial protease [2] is recorded as “no activity”.
`COC(=O)CCC(=O)N[C@@H](C)C(=O)N[C@@H](C)C(=O)N1CCC[C@H]1C(=O)N[C@@H](CCSC)C(=O)Nc1ccc([N+](=O)[O-])cc1` [MeO-Suc-Ala-Ala-Pro-Met-pNA] (MeOSuc-AAPM-pNA): the Km at cercarial protease [2] was determined as 300 µM.
The same measure, in the same setting: in the case of `CCCC[C@H](NC(=O)[C@@H]1CCCN1C(=O)[C@H](C)NC(=O)[C@H](C)NC(=O)CCC(=O)OC)C(=O)Nc1ccc([N+](=O)[O-])cc1` [MeO-Suc-Ala-Ala-Pro-Nle-pNA] (MeOSuc-AAP[Nle]-pNA) it was 300 µM.
`COC(=O)CCC(=O)N[C@@H](C)C(=O)N[C@@H](C)C(=O)N1CCC[C@H]1C(=O)N[C@@H](Cc1ccccc1)C(=O)CCl` [MeO-Suc-Ala-Ala-Pro-Phe-CMK] (MeOSuc-AAPF-CH2Cl) came in with a Ki at cercarial protease [3] of 13 µM. This compound had an IC50 against Cercarial Proteinase of 0.088 µM.
With `COC(=O)CCC(=O)N[C@@H](C)C(=O)N[C@@H](C)C(=O)N1CCC[C@H]1C(=O)N[C@@H](Cc1ccccc1)C(=O)SCc1ccccc1` [MeO-Suc-Ala-Ala-Pro-Phe-Sbzl] (MeOSuc-AAPF-SBn), the Km at cercarial protease [2] was found to be 96 µM.
For the compound `COC(=O)CCC(=O)N[C@@H](C)C(=O)N[C@@H](C)C(=O)N1CCC[C@H]1C(=O)N[C@@H](Cc1ccccc1)C(=O)Nc1ccc([N+](=O)[O-])cc1` [MeO-Suc-Ala-Ala-Pro-Phe-pNA] (MeOSuc-AAPF-pNA), the Km at cercarial protease [2] is 119 µM.
For the compound `COC(=O)CCC(=O)N[C@@H](C)C(=O)N[C@@H](C)C(=O)N1CCC[C@H]1C(=O)N[C@@H](Cc1c[nH]c2ccccc12)C(=O)CCl` [MeO-Suc-Ala-Ala-Pro-Trp-CMK] (MeOSuc-AAPW-CH2Cl), on cercarial protease [3], the affinity corresponds to a Ki of 20 µM.
As for `COC(=O)CCC(=O)N[C@@H](C)C(=O)N[C@@H](C)C(=O)N1CCC[C@H]1C(=O)N[C@H](C(=O)Nc1ccc2c(C)cc(=O)oc2c1)C(C)C` [MeO-Suc-Ala-Ala-Pro-Val-AMC] (MeOSuc-AAPV-{AMC}), the “substrate hydrolysis activity (in words)” value at cercarial protease [2] is listed as “no activity”.
Regarding `COC(=O)CCC(=O)N[C@@H](C)C(=O)N[C@@H](CCCCN)C(=O)N1CCC[C@H]1C(=O)N[C@@H](Cc1ccccc1)C(=O)CCl` [MeO-Suc-Ala-Lys-Pro-Phe-CMK], the affinity at cercarial protease [3], expressed as Ki, was 7 µM.
On the same count and under the same terms, in the case of `COC(=O)CCC(=O)N[C@@H](Cc1ccccc1)C(=O)N[C@@H](C)C(=O)N1CCC[C@H]1C(=O)N[C@@H](Cc1ccccc1)C(=O)CCl` [MeO-Suc-Phe-Ala-Pro-Phe-CMK] (MeOSuc-FAPF-CH2Cl) it was 1 µM.
Regarding `COC(=O)CCC(=O)N[C@@H](Cc1ccccc1)C(=O)N[C@@H](C)C(=O)N1CCC[C@H]1C(=O)N[C@@H](Cc1ccccc1)C(=O)SCc1ccccc1` [MeO-Suc-Phe-Ala-Pro-Phe-Sbzl] (MeOSuc-FAPF-SBn), at cercarial protease [2], the Km worked out at 244 µM.
As for `COC(=O)CCC(=O)N[C@@H](Cc1c[nH]c2ccccc12)C(=O)N[C@@H](C)C(=O)N1CCC[C@H]1C(=O)N[C@@H](CC(C)C)C(=O)CCl` [MeO-Suc-Trp-Ala-Pro-Leu-CMK] (MeOSuc-WAPL-CH2Cl), the Ki on cercarial protease [3] turned out to be 2 µM.
In the case of `COC(=O)CCC(=O)N[C@@H](Cc1c[nH]c2ccccc12)C(=O)N[C@@H](C)C(=O)N1CCC[C@H]1C(=O)N[C@@H](Cc1ccccc1)C(=O)CCl` [MeO-Suc-Trp-Ala-Pro-Phe-CMK] (MeOSuc-WAPF-CH2Cl), the affinity at cercarial protease [3] corresponds to a Ki of 12 µM.
As to `COC(=O)CCC(=O)N[C@@H](Cc1c[nH]c2ccccc12)C(=O)N[C@@H](C)C(=O)N1CCC[C@H]1C(=O)N[C@@H](Cc1ccccc1)C(=O)SCc1ccccc1` [MeO-Suc-Trp-Ala-Pro-Phe-Sbzl] (MeOSuc-WAPF-SBn), at cercarial protease [2], the “substrate hydrolysis activity (in words)” value is reported as “no activity”.

The values are drawn from patent publication US5284829A, “Synthetic tetrapeptides for the prevention of schistosome parasite infection” (priority 1991, dated 1994).
